Legend:
Details in all cases: 72 h
[1] = tested on: HepG2; experiment: drug sensitivity score (DSS) for viability; higher = more toxic; extreme values may be limits of the assay
[2] = tested on: Caco-2; experiment: as above
[3] = tested on: U2OS; experiment: as above
[4] = tested on: Calu-3; experiment: as above
[5] = tested on: Vero E6; experiment: as above
[6] = tested on: HepG2; experiment: cell viability relative to DMSO; higher = less toxic
[7] = tested on: Caco-2; experiment: as above
[8] = tested on: U2OS; experiment: as above
[9] = tested on: Calu-3; experiment: as above
[10] = tested on: Vero E6; experiment: as above
[11] = tested on: HepG2; experiment: relative viability EC50 (midpoint between 100% and the lowest measured viability); higher = less toxic
[12] = tested on: Caco-2; experiment: as above
[13] = tested on: U2OS; experiment: as above
[14] = tested on: Calu-3; experiment: as above
[15] = tested on: Vero E6; experiment: as above

| SMILES | drug sensitivity score [1] | drug sensitivity score [2] | drug sensitivity score [3] | drug sensitivity score [4] | drug sensitivity score [5] | cell viability ([6]; 1 nM) [%] | cell viability ([6]; 10 nM) [%] | cell viability ([6]; 100 nM) [%] | cell viability ([6]; 1000 nM) [%] | cell viability ([6]; 10000 nM) [%] | cell viability ([7]; 1 nM) [%] | cell viability ([7]; 10 nM) [%] | cell viability ([7]; 100 nM) [%] | cell viability ([7]; 1000 nM) [%] | cell viability ([7]; 10000 nM) [%] | cell viability ([8]; 1 nM) [%] | cell viability ([8]; 10 nM) [%] | cell viability ([8]; 100 nM) [%] | cell viability ([8]; 1000 nM) [%] | cell viability ([8]; 10000 nM) [%] | cell viability ([9]; 1 nM) [%] | cell viability ([9]; 10 nM) [%] | cell viability ([9]; 100 nM) [%] | cell viability ([9]; 1000 nM) [%] | cell viability ([9]; 10000 nM) [%] | cell viability ([10]; 1 nM) [%] | cell viability ([10]; 10 nM) [%] | cell viability ([10]; 100 nM) [%] | cell viability ([10]; 1000 nM) [%] | cell viability ([10]; 10000 nM) [%] | relative viability EC50 [11] [µM] | relative viability EC50 [12] [µM] | relative viability EC50 [13] [µM] | relative viability EC50 [14] [µM] | relative viability EC50 [15] [µM] |
| --- | --- | --- | --- | --- | --- | --- | --- | --- | --- | --- | --- | --- | --- | --- | --- | --- | --- | --- | --- | --- | --- | --- | --- | --- | --- | --- | --- | --- | --- | --- | --- | --- | --- | --- | --- |
| C#CCOC(=O)C1=CCCN(C)C1 [arecaidine-propargyl-ester] | 0 | 0 | 0 | 0 | 0 | 95.1 | 95.5 | 101 | 102 | 102 | 91.4 | 98.4 | 94.4 | 98 | 103 | 98 | 93.2 | 99.3 | 102 | 101 | 100 | 103 | 95.2 | 100 | 95.6 | 97.4 | 99 | 95 | 98.4 | 107 | > 10 | > 10 | > 10 | > 10 | > 10 |
| NC(=O)[C@@H](CCC(F)(F)F)N(Cc1ccc(-c2ncon2)cc1F)S(=O)(=O)c1ccc(Cl)cc1 [avagacestat] | 0 | 1.4 | 0 | 0 | 0 | 96.6 | 102 | 94.9 | 105 | 87.9 | 103 | 99.9 | 95.9 | 93.2 | 77.1 | 99.1 | 94.9 | 102 | 93.1 | 96.5 | 96.2 | 105 | 106 | 95.2 | 105 | 107 | 110 | 106 | 109 | 99.2 | > 10 | > 10 | > 10 | > 10 | > 10 |
| O=C(c1cc2ccccc2o1)N1CCN(Cc2ccccc2)CC1 [befuraline] | 0 | 0 | 0 | 0 | 0 | 102 | 97 | 101 | 94.1 | 102 | 85 | 91 | 88.8 | 99.2 | 84.4 | 95.8 | 97.6 | 95.1 | 98 | 94.6 | 94.1 | 97.8 | 100 | 93.8 | 90.7 | 113 | 97.2 | 106 | 103 | 96.7 | > 10 | > 10 | > 10 | > 10 | > 10 |
| O=S(=O)(N[C@H](CO)C(C(F)(F)F)C(F)(F)F)c1ccc(Cl)s1 [begacestat] | 0 | 0 | 0 | 0 | 0.7 | 99.1 | 106 | 88 | 96.5 | 96.6 | 118 | 102 | 99.8 | 96.1 | 109 | 100 | 94.2 | 102 | 89.7 | 93.6 | 99.4 | 102 | 108 | 104 | 96.7 | 99.6 | 101 | 105 | 95.7 | 84.6 | > 10 | > 10 | > 10 | > 10 | > 10 |
| CCOC(=O)[C@H](CCc1ccccc1)N[C@H]1CCc2ccccc2N(CC(=O)O)C1=O [benazepril] | 0 | 0 | 0 | 0 | 0 | 112 | 101 | 95.4 | 104 | 96.9 | 99.1 | 90.8 | 106 | 101 | 94.6 | 99.1 | 94 | 102 | 93.8 | 93.4 | 94.9 | 97.5 | 111 | 97.8 | 108 | 103 | 104 | 96.1 | 109 | 99.2 | > 10 | > 10 | > 10 | > 10 | > 10 |
| CC(O)CC(=O)O (stereo not drawn) [beta-hydroxybutyrate] | 0 | 0 | 0 | 0 | 0 | 90.5 | 96.2 | 101 | 99.7 | 99 | 114 | 99.4 | 122 | 104 | 103 | 94.6 | 95.1 | 99.3 | 97.8 | 101 | 99.2 | 106 | 100 | 96.9 | 94.5 | 97.6 | 95.3 | 93.3 | 97.1 | 114 | > 10 | > 10 | > 10 | > 10 | > 10 |
| CCN(CC)c1ccc(C(=C2C=CC(=[N+](CC)CC)C=C2)c2ccccc2)cc1 [brilliant-green] | 22.3 | 21.9 | 24.1 | 18.7 | 17.7 | 109 | 97.7 | 58.8 | 5.2 | -0.3 | 92.4 | 92.5 | 69.4 | 0.4 | -0.3 | 93.6 | 95.5 | 47.8 | 0.8 | -0.2 | 94.6 | 101 | 72.4 | 16.2 | 0 | 96.5 | 97.8 | 94.2 | 6.8 | -0.2 | 0.128 | 0.148 | 0.0933 | 0.235 | 0.328 |
| O=[N+]([O-])C(Br)(CO)CO [bronopol] | 0 | 0 | 0 | 0 | 0 | 112 | 108 | 107 | 93.3 | 108 | 95.2 | 95.2 | 96.5 | 98.7 | 113 | 95.5 | 102 | 95.7 | 101 | 102 | 110 | 98.6 | 91.6 | 103 | 105 | 105 | 84.2 | 106 | 90.6 | 99 | > 10 | > 10 | > 10 | > 10 | > 10 |
| CCN(CC)CCOCCOC(=O)C1(c2ccccc2)CCCC1 [carbetapentane] | 0 | 0 | 0 | 0 | 0 | 104 | 103 | 97.2 | 97.5 | 94.4 | 97.9 | 94.3 | 94.3 | 105 | 91.1 | 99.4 | 102 | 99.5 | 101 | 95.5 | 90.6 | 93.8 | 104 | 97.6 | 100 | 103 | 93.9 | 108 | 104 | 97.6 | > 10 | > 10 | > 10 | > 10 | > 10 |
| CCCCCCCCCCCCCCCC(=O)OC[C@@H](NC(=O)C(Cl)Cl)[C@H](O)c1ccc([N+](=O)[O-])cc1 [chloramphenicol-palmitate] | 0.2 | 0 | 0 | 0 | 0 | 98.1 | 101 | 103 | 92.4 | 88.6 | 111 | 102 | 99 | 95.1 | 95.3 | 105 | 99.6 | 102 | 104 | 100 | 97.3 | 95.6 | 95.2 | 97 | 102 | 107 | 107 | 102 | 97.2 | 99.3 | > 10 | > 10 | > 10 | > 10 | > 10 |
| COc1ccc(C(Cl)=C(c2ccc(OC)cc2)c2ccc(OC)cc2)cc1 [chlorotrianisene] | 0 | 0 | 0 | 0 | 0 | 98.5 | 94.9 | 93.6 | 111 | 101 | 98.5 | 97.5 | 98 | 104 | 102 | 95.5 | 97.8 | 101 | 102 | 93.6 | 98.5 | 95.9 | 104 | 83.6 | 99.9 | 93.8 | 103 | 91.8 | 99.5 | 106 | > 10 | > 10 | > 10 | > 10 | > 10 |
| c1ccc(C2CC2)c(OCC2=NCCN2)c1 [cirazoline] | 0 | 0 | 0 | 0 | 0 | 95.5 | 97.6 | 94.8 | 107 | 110 | 97.1 | 95 | 102 | 90.4 | 113 | 94.2 | 95.7 | 99.5 | 97.6 | 98.1 | 108 | 97.2 | 99.3 | 107 | 98.6 | 93.7 | 97.2 | 95.8 | 106 | 107 | > 10 | > 10 | > 10 | > 10 | > 10 |
| O=P(O)(O)C(Cl)(Cl)P(=O)(O)O [clodronic-acid] | 0 | 0 | 0 | 0 | 0 | 99.2 | 96.6 | 98.6 | 101 | 102 | 98 | 103 | 96.3 | 100 | 100 | 99.4 | 102 | 105 | 101 | 103 | 94.3 | 97.1 | 96.5 | 96.1 | 109 | 108 | 103 | 97.7 | 101 | 99.1 | > 10 | > 10 | > 10 | > 10 | > 10 |
| Cc1cc(C(C#N)c2ccc(Cl)cc2)c(Cl)cc1NC(=O)c1cc(I)cc(I)c1O (stereo not given) [closantel] | 0 | 0 | 0 | 0 | 0 | 95 | 95.5 | 102 | 86.4 | 107 | 97.4 | 99.6 | 99.8 | 97.5 | 100 | 93.3 | 96.7 | 97.4 | 98.8 | 104 | 90.9 | 95.5 | 92.3 | 92.4 | 95.3 | 101 | 98.2 | 96.2 | 93.7 | 101 | > 10 | > 10 | > 10 | > 10 | > 10 |

Source: the supplement of paper PMC13380429
